# Measurements taken from patent US20250387449A1, “PHARMACEUTICAL COMBINATION COMPRISING AN IBAT INHIBITOR AND A BILE ACID BINDER” (Albireo AB, priority 2010, published 2025).
# Key:
# [1] = Phase IIb placebo-controlled dose-finding study in patients with Chronic Idiopathic Constipation: adverse events; type: in vivo, human; conditions: 56 days treatment
# Experimental: A Phase IIb, Double-blind, Randomized, Placebo-controlled, Multi-centre, Dose-finding, Efficacy and Safety Study of a Range of Doses of the compound of Example 14 in about 200 patients with Chronic Idiopathic Constipation, where patients were treated for 56 days, was performed. The patients were males or non-pregnant females ≥20 years of age and ≤80 years of age, having a body mass index (BMI) ≥18.5 but <35.
# All patients with adverse events of diarrhea and abdominal pain type related to treatment with the compound of Example 14 are presented in table 2.
# [2] = as above; type: in vivo, human; conditions: Example 14 plus colonic delivery of 400 mg colesevelam 3 times a day
smiles,measurement,setting,value
"CCCCC1(CCCC)CN(c2ccccc2)c2cc(SC)c(OCC(=O)N[C@@H](C(=O)NCC(=O)O)c3ccccc3)cc2S(=O)(=O)C1 [Example 14, 1,1-Dioxo-3,3-dibutyl-5-phenyl-7-methylthio-8-(N—{(R)-1′-phenyl-1′-[N′-(carboxymethyl)-carbamoyl]methyl}carbamoylmethoxy)-2,3,4,5-tetrahydro-1,5-benzothiazepine]","Abdominal Pain, % of Population",[1]; 5 mg,10.4 % of Population
same,"Abdominal Pain, Number of Patients",[1]; 5 mg,5
same,"Diarrhoea, % of Population",[1]; 5 mg,8.3 % of Population
same,"Diarrhoea, Number of Patients",[1]; 5 mg,4
same,"Abdominal Pain, % of Population",[1]; 10 mg,10.6 % of Population
same,"Abdominal Pain, Number of Patients",[1]; 10 mg,5
same,"Diarrhoea, % of Population",[1]; 10 mg,10.6 % of Population
same,"Diarrhoea, Number of Patients",[1]; 10 mg,5
same,"Abdominal Pain, % of Population",[1]; 15 mg,27.1 % of Population
same,"Abdominal Pain, Number of Patients",[1]; 15 mg,13
same,"Diarrhoea, % of Population",[1]; 15 mg,16.7 % of Population
same,"Diarrhoea, Number of Patients",[1]; 15 mg,8
same,"bile acid dependent side effects generated from colon (diarrhoea, abdominal pain)",[2],effectively block bile acid side effects generated from the colon
